According to patent US7074447B2 (Laboratories Miret, S.A., priority 2001, dated 2006):

What was measured:
Format in all cases: cell-based
[1] = tested on: Bacillus subtilis (CECT 356); assay: minimum inhibition concentration and Kull synergy index of LAE / potassium sorbate; settings: for SI, synergy index: <1 synergism, 1 addition, >1 antagonism
Description: The invention is now explained by a number of examples. In these examples LAE and sorbate alone and in a number of different combinations have been investigated against a number of bacterial preparations. For the analysis usually an internal method was used. Conditions and medium were Mueller Hinton broth (pH 7.4) or (pH 5.0) for bacteria, Sabouraud broth (pH 5.8) for yeast and Sabouraud medium for moulds. […] The interaction of the two components of the antimicrobial mixture is calculated according to the method described by Kull et al. (Kull […]. and Mayer R. L., Applied Microbiology, 1961; 6:538-541). According to this method the so-called synergy index is calculated according to the following formula: Synergy index […]. […] All indicated symbols indicate a particular concentration leading to a particular end point, in this case the inhibition of growth of Bacillus subtilis, so that the selected end point is in fact the minimal inhibitory concentration (mic).

[2] = tested on: Gram-Positive Bacteria, Gram-Negative Bacteria, Moulds and Yeasts; assay: activity of LAE against listed microorganisms; settings: strains listed in b7
Source text: • Arthrobacter oxydans ATCC 8010 • Bacillus cereus var mycoide ATCC 11778 • Bacillus subtilis ATCC 6633 • Bacillus megaterium CECT 44 • Clostridium perfringens ATCC 77454 • Clostridium perfringens CECT 486 • Listeria monocytogenes ATCC 7644 • Staphylococcus aureus ATCC 6538 • Micrococcus luteus ATCC 9631 • Lactobacillus delbrueckii ssp lactis CECT 372 Gram-Negative Bacteria • Alcaligenes faecalis ATCC 8750 • Bordetella bronchiseptica ATCC 4617 • Citrobacter freundii ATCC 22636 • Citrobacter intermedium CECT 401 • Enterobacter aerogenes CECT 689 • Escherichia coli ATCC 8739 • Escherichia coli 0157H7 • Klebsiella pneumoniae var pneumoniae CECT 178 • Proteus mirabilis CECT 170 • Pseudomonas aeruginosa ATCC 9027 • Salmonella typhimurium ATCC16028 • Serratia marcenses CECT 274 • Mycobacterium phlei ATCC 41423 Moulds and Yeasts • Aspergillus niger ATCC14604 • Aureobasidium pullulans ATCC 9348 • Cladosporium cladosporioides ATCC 16022 • Gliocadium virens ATCC 4645 • Chaetonium globosum ATCC 6205 • Penicillium chrysogenum CECT 2802 • Penicillium funiculosum CECT 2914 • Penicillium camemberti CECT 2267 • Candida albicans ATCC 10231 • Rhodotorula rubra CECT 1158 • Saccharomyces cerevisiae ATCC 9763

[3] = tested on: Enterobacter aerogenes (ATCC 13048); assay: minimum inhibition concentration and Kull synergy index of LAE / potassium sorbate; settings: for SI, synergy index: <1 synergism, 1 addition, >1 antagonism
Description: (§1) The invention is now explained by a number of examples. In these examples LAE and sorbate alone and in a number of different combinations have been investigated against a number of bacterial preparations. For the analysis usually an internal method was used. Conditions and medium were Mueller Hinton broth (pH 7.4) or (pH 5.0) for bacteria, Sabouraud broth (pH 5.8) for yeast and Sabouraud medium for moulds. The interaction of the two components of the antimicrobial mixture is calculated according to the method described by Kull et al. (Kull […]. and Mayer R. L., Applied Microbiology, 1961; 6:538-541). According to this method the so-called synergy index is calculated according to the following formula: Synergy index […]. […] The same method was used as described for example 1. […] Again the effects of the components alone and in combination have been calculated using the same method as described at Example 1.

[4] = tested on: Escherichia coli (ATCC 8739); assay: as above; settings: for SI, synergy index: <1 synergism, 1 addition, >1 antagonism
Description: as §1

[5] = tested on: Penicillium camemberti (CECT 2267); assay: as above; settings: for SI, synergy index: <1 synergism, 1 addition, >1 antagonism
Description: as §1

[6] = tested on: Cladosporium cladosporioides (ATCC 16022); assay: as above; settings: for SI, synergy index: <1 synergism, 1 addition, >1 antagonism
Description: as §1

[7] = tested on: Citrobacter intermedium (CECT 401); assay: as above; settings: for SI, synergy index: <1 synergism, 1 addition, >1 antagonism
Description: as §1

[8] = pH 7.4, propylene glycol solutions

Question: With `CCCCCCCCCCCC(=O)N[C@@H](CCCNC(=N)N)C(=O)OCC.Cl` [LAE, L-arginine, N^α-lauroyl-ethylester monohydrochloride] as the compound, how does the “QLAE, minimum inhibition concentration of LAE as single antimicrobial” value ([1]; pH 5.0) read?
Answer: The value was 29.3.

Question: What about the “Qlae, minimum inhibition concentration of LAE in the mixture” value ([1]; pH 5.0) of the same compound?
Answer: The value was 29.3.

Question: What about the Qlae/QLAE ([1]; pH 5.0) of the same compound?
Answer: Its Qlae/QLAE is 1.00.

Question: What about the “Qs, minimum inhibition concentration of potassium sorbate in the mixture” value (“Qs, minimum inhibition concentration” for short) ([1]; pH 5.0) of the same compound?
Answer: Its value is 0.

Question: What about the Qs/QS ([1]; pH 5.0) of the same compound?
Answer: Its Qs/QS is 0.00.

Question: What about the “SI, synergy index” value ([1]; pH 5.0) of the same compound?
Answer: The value was 1.00.

Question: What about the “QLAE, minimum inhibition concentration of LAE as single antimicrobial” value [1, 8] of the same compound?
Answer: Its value is 12.8.

Question: And the “Qlae, minimum inhibition concentration of LAE in the mixture” value [1, 8]?
Answer: The value was 12.8.

Question: What about the Qlae/QLAE [1, 8] of the same compound?
Answer: The Qlae/QLAE was 1.00.

Question: What about the “Qs, minimum inhibition concentration” value [1, 8] of the same compound?
Answer: Its value is 0.

Question: What about the Qs/QS [1, 8] of the same compound?
Answer: The Qs/QS was 0.00.

Question: What about the “SI, synergy index” value [1, 8] of the same compound?
Answer: Its value is 1.00.

Question: What about the “activity against the listed microorganisms” value [2] of the same compound?
Answer: Its value is “activity”.

Question: What about the “QLAE, minimum inhibition concentration of LAE as single antimicrobial” value ([3]; pH 5.0) of the same compound?
Answer: Its value is 21.5.

Question: What about the “Qlae, minimum inhibition concentration of LAE in the mixture” value ([3]; pH 5.0) of the same compound?
Answer: Its value is 21.5.

Question: And the Qlae/QLAE ([3]; pH 5.0)?
Answer: The Qlae/QLAE was 1.00.

Question: What about the “Qs, minimum inhibition concentration” value ([3]; pH 5.0) of the same compound?
Answer: The value was 0.

Question: And the Qs/QS ([3]; pH 5.0)?
Answer: The Qs/QS was 0.00.

Question: What about the “SI, synergy index” value ([3]; pH 5.0) of the same compound?
Answer: The value was 1.00.

Question: What about the “Qlae, minimum inhibition concentration of LAE in the mixture” value ([3]; pH 7.4, aqueous solutions) of the same compound?
Answer: Its value is 68.2.

Question: And the “Qs, minimum inhibition concentration” value ([3]; pH 7.4, aqueous solutions)?
Answer: Its value is 0.

Question: What about the Qs/QS ([3]; pH 7.4, aqueous solutions) of the same compound?
Answer: The Qs/QS was 0.00.

Question: What about the “SI, synergy index” value ([3]; pH 7.4, aqueous solutions) of the same compound?
Answer: Its value is 1.00.

Question: What about the “QLAE, minimum inhibition concentration of LAE as single antimicrobial” value ([4]; pH 5.0) of the same compound?
Answer: The value was 21.5.

Question: And the “Qlae, minimum inhibition concentration of LAE in the mixture” value ([4]; pH 5.0)?
Answer: The value was 21.5.

Question: What about the Qlae/QLAE ([4]; pH 5.0) of the same compound?
Answer: Its Qlae/QLAE is 1.00.

Question: And the “Qs, minimum inhibition concentration” value ([4]; pH 5.0)?
Answer: Its value is 0.

Question: And the Qs/QS ([4]; pH 5.0)?
Answer: The Qs/QS was 0.00.

Question: What about the “SI, synergy index” value ([4]; pH 5.0) of the same compound?
Answer: The value was 1.00.

Question: What about the “QLAE, minimum inhibition concentration of LAE as single antimicrobial” value ([4]; pH 7.4, aqueous solutions) of the same compound?
Answer: The value was 25.6.

Question: And the “Qlae, minimum inhibition concentration of LAE in the mixture” value ([4]; pH 7.4, aqueous solutions)?
Answer: Its value is 25.6.

Question: What about the Qlae/QLAE ([4]; pH 7.4, aqueous solutions) of the same compound?
Answer: The Qlae/QLAE was 1.00.

Question: And the “Qs, minimum inhibition concentration” value ([4]; pH 7.4, aqueous solutions)?
Answer: The value was 0.

Question: And the Qs/QS ([4]; pH 7.4, aqueous solutions)?
Answer: Its Qs/QS is 0.00.

Question: And the “SI, synergy index” value ([4]; pH 7.4, aqueous solutions)?
Answer: The value was 1.00.

Question: And the “QLAE, minimum inhibition concentration of LAE as single antimicrobial” value ([5]; pH 5.0)?
Answer: Its value is 58.5.

Question: What about the “Qlae, minimum inhibition concentration of LAE in the mixture” value ([5]; pH 5.0) of the same compound?
Answer: Its value is 58.5.

Question: And the Qlae/QLAE ([5]; pH 5.0)?
Answer: The Qlae/QLAE was 1.00.

Question: What about the “Qs, minimum inhibition concentration” value ([5]; pH 5.0) of the same compound?
Answer: Its value is 0.

Question: What about the Qs/QS ([5]; pH 5.0) of the same compound?
Answer: The Qs/QS was 0.00.

Question: What about the “SI, synergy index” value ([5]; pH 5.0) of the same compound?
Answer: Its value is 1.00.

Question: What about the “QLAE, minimum inhibition concentration of LAE as single antimicrobial” value ([5]; pH 7.4, aqueous solutions) of the same compound?
Answer: The value was 68.2.

Question: And the “Qlae, minimum inhibition concentration of LAE in the mixture” value ([5]; pH 7.4, aqueous solutions)?
Answer: Its value is 68.2.

Question: What about the Qlae/QLAE ([5]; pH 7.4, aqueous solutions) of the same compound?
Answer: The Qlae/QLAE was 1.00.

Question: What about the “Qs, minimum inhibition concentration” value ([5]; pH 7.4, aqueous solutions) of the same compound?
Answer: Its value is 0.

Question: And the Qs/QS ([5]; pH 7.4, aqueous solutions)?
Answer: Its Qs/QS is 0.00.

Question: What about the “SI, synergy index” value ([5]; pH 7.4, aqueous solutions) of the same compound?
Answer: Its value is 1.00.

Question: What about the “QLAE, minimum inhibition concentration of LAE as single antimicrobial” value ([6]; pH 5.0) of the same compound?
Answer: The value was 58.5.

Question: What about the “Qlae, minimum inhibition concentration of LAE in the mixture” value ([6]; pH 5.0) of the same compound?
Answer: Its value is 58.5.

Question: And the Qlae/QLAE ([6]; pH 5.0)?
Answer: The Qlae/QLAE was 1.00.

Question: What about the “Qs, minimum inhibition concentration” value ([6]; pH 5.0) of the same compound?
Answer: The value was 0.

Question: And the Qs/QS ([6]; pH 5.0)?
Answer: Its Qs/QS is 0.00.

Question: What about the “SI, synergy index” value ([6]; pH 5.0) of the same compound?
Answer: Its value is 1.00.

Question: What about the “QLAE, minimum inhibition concentration of LAE as single antimicrobial” value ([6]; pH 7.4, aqueous solutions) of the same compound?
Answer: Its value is 25.6.

Question: What about the “Qlae, minimum inhibition concentration of LAE in the mixture” value ([6]; pH 7.4, aqueous solutions) of the same compound?
Answer: The value was 25.6.

Question: And the Qlae/QLAE ([6]; pH 7.4, aqueous solutions)?
Answer: The Qlae/QLAE was 1.00.

Question: And the “Qs, minimum inhibition concentration” value ([6]; pH 7.4, aqueous solutions)?
Answer: Its value is 0.

Question: And the Qs/QS ([6]; pH 7.4, aqueous solutions)?
Answer: The Qs/QS was 0.00.

Question: What about the “SI, synergy index” value ([6]; pH 7.4, aqueous solutions) of the same compound?
Answer: Its value is 1.00.

Question: And the “QLAE, minimum inhibition concentration of LAE as single antimicrobial” value ([7]; pH 5.0)?
Answer: Its value is 12.8.

Question: And the “Qlae, minimum inhibition concentration of LAE in the mixture” value ([7]; pH 5.0)?
Answer: The value was 12.8.

Question: What about the Qlae/QLAE ([7]; pH 5.0) of the same compound?
Answer: Its Qlae/QLAE is 1.00.

Question: And the “Qs, minimum inhibition concentration” value ([7]; pH 5.0)?
Answer: Its value is 0.

Question: What about the Qs/QS ([7]; pH 5.0) of the same compound?
Answer: Its Qs/QS is 0.00.

Question: What about the “SI, synergy index” value ([7]; pH 5.0) of the same compound?
Answer: Its value is 1.00.

Question: And the “QLAE, minimum inhibition concentration of LAE as single antimicrobial” value ([7]; pH 7.4, aqueous solutions)?
Answer: The value was 25.6.

Question: What about the “Qlae, minimum inhibition concentration of LAE in the mixture” value ([7]; pH 7.4, aqueous solutions) of the same compound?
Answer: The value was 25.6.

Question: What about the Qlae/QLAE ([7]; pH 7.4, aqueous solutions) of the same compound?
Answer: The Qlae/QLAE was 1.00.

Question: What about the “Qs, minimum inhibition concentration” value ([7]; pH 7.4, aqueous solutions) of the same compound?
Answer: Its value is 0.

Question: And the Qs/QS ([7]; pH 7.4, aqueous solutions)?
Answer: The Qs/QS was 0.00.

Question: What about the “SI, synergy index” value ([7]; pH 7.4, aqueous solutions) of the same compound?
Answer: The value was 1.00.
